These results are taken from ChEMBL document CHEMBL1136270 (Bioorg Med Chem Lett, 2003).

Assay [1] deals with MAP kinase p38 (Mus musculus, UniProt P47811+O08911+Q9WUI1+Q9Z1B7). The assay is described as follows: Inhibitory activity against mouse Mitogen-activated protein kinase p38. Format: protein assay.
Assay [2] has as its system THP-1. Description: Anti human TNF-alpha activity determined through TNF-alpha release was measured in the supernatants by ELISA.; not active at a concentration of <10 uM. The format is functional, cell-based.
The test system of assay [3] is THP-1. Description: Anti human TNF-alpha activity determined through TNF-alpha release was measured in the supernatants by ELISA; not active at a concentration of <10 uM. The format is functional, cell-based. A general note: An ELISA detects its analyte on a solid surface through an enzyme-linked reagent.

The term IC50 denotes the concentration that inhibits the measured activity by half. A higher IC50 goes with weaker potency. The compound `O=C1NCc2nc(Sc3ccc(F)cc3F)c(N3CC4CCC3C4)cc2N1c1c(Cl)cccc1Cl` (configuration not stated) came in with a half-maximal inhibitory concentration (IC50) in assay [1] of 5.3 nM.

As to `O=C1NCc2nc(Sc3ccc(F)cc3F)c(N3CC4CC3CN4C3CC3)cc2N1c1c(Cl)cccc1Cl` (configuration not stated), in assay [1], the 50% inhibitory concentration (IC50) came out at 3 nM.

The compound `O=C1NCc2nc(Sc3ccc(F)cc3F)c(N3CCCCC3)cc2N1c1c(Cl)cccc1Cl` returned a concentration for half-maximal inhibition (IC50) in assay [1] of 4.2 nM. In assay [1], `O=C1NCc2nc(Sc3ccc(F)cc3F)c(N3CCOCC3)cc2N1c1c(Cl)cccc1Cl` displayed an IC50 of 2 nM.

In turn, `O=C1NCc2nc(Sc3ccc(F)cc3F)c(OC3CCNCC3)cc2N1c1c(Cl)cccc1Cl` had an IC50 in assay [1] of 11 nM. Against the preceding compound, the IC50 is about 5.5-fold higher.

In assay [1], `O=C1NCc2nc(Sc3ccc(F)cc3F)c(N3CCC(CCN4CCCC4)CC3)cc2N1c1c(Cl)cccc1Cl` yielded an IC50 of 6 nM.

`O=C1NCc2nc(Sc3ccc(F)cc3F)c(N3CC4CC3CN4CC3CC3)cc2N1c1c(Cl)cccc1Cl` (configuration not stated) gave an IC50 in assay [1] of 3 nM. This IC50 is about 2-fold lower than that of the compound before. The same measure, in the same setting: the figure for `CN(C)CCN1CCN(c2cc3c(nc2Sc2ccc(F)cc2F)CNC(=O)N3c2c(Cl)cccc2Cl)CC1` is 0.6 nM; for `CC1CN(c2cc3c(nc2Sc2ccc(F)cc2F)CNC(=O)N3c2c(Cl)cccc2Cl)CC(C)O1` (configuration not stated) it is 3 nM. On the same count and under the same terms, the figure for `CCN1CC2CC1CN2c1cc2c(nc1Sc1ccc(F)cc1F)CNC(=O)N2c1c(Cl)cccc1Cl` (configuration not stated) is 9 nM; for `O=C1NCc2nc(Sc3ccc(F)cc3F)c(N3CCNCC3)cc2N1c1c(Cl)cccc1Cl` it is 2 nM. Compound `CC(C)N1CCN(c2cc3c(nc2Sc2ccc(F)cc2F)CNC(=O)N3c2c(Cl)cccc2Cl)CC1` returned an IC50 in assay [1] of 7 nM. `O=C1NCc2nc(Sc3ccc(F)cc3F)c(N3CCN(CCN4CCCC4)CC3)cc2N1c1c(Cl)cccc1Cl`: the IC50 in assay [1] is 1.1 nM. In the case of `O=C1NCc2nc(Sc3ccc(F)cc3F)c(Br)cc2N1c1c(Cl)cccc1Cl`, the results for the concentration for half-maximal inhibition (IC50) in assay [1] and in assay [2] were 16 nM and “Not Active”, respectively. In the case of `CC(C)(C)OC(=O)N1CC2CC1CN2c1cc2c(nc1Sc1ccc(F)cc1F)CNC(=O)N2c1c(Cl)cccc1Cl` (configuration not stated), the IC50 in assay [1] is 44 nM; in assay [3] it was “Not Active”. In assay [1], `CC(C)N1CC2CC1CN2c1cc2c(nc1Sc1ccc(F)cc1F)CNC(=O)N2c1c(Cl)cccc1Cl` (configuration not stated) came in with an IC50 of 2 nM. With `CC(C)(C)OC(=O)N1CCN(c2cc3c(nc2Sc2ccc(F)cc2F)CNC(=O)N3c2c(Cl)cccc2Cl)CC1`, the IC50 in assay [1] was 25 nM; in assay [3], “Not Active”. As to `O=C1NCc2nc(Sc3ccc(F)cc3F)c(N3CC4CC3CN4)cc2N1c1c(Cl)cccc1Cl` (configuration not stated), the 50% inhibitory concentration (IC50) in assay [1] is 0.6 nM. On the same count and under the same terms, the figure for `O=C1NCc2nc(Sc3ccc(F)cc3F)c(NC3CCNCC3)cc2N1c1c(Cl)cccc1Cl` is 4 nM.
